From ChEMBL document CHEMBL1201862, “PubChem BioAssay data set” (2004)
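Values below derive from 48-hour exposures of cells grown in 96-well plates, with endpoints linearly interpolated between the two concentrations bracketing the appropriate inhibition level. At the GI50, growth is halved.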 Activity calls are given as the source filed them. Rule as the data show it: active = GI50 up to about 1.1 µM and inactive = higher.

Tests used:
Assay in all cases: NCI anticancer screen, dose series, 48 h
786-0 = tested on: 786-0
A498 = tested on: A498
A549 = tested on: A549
ACHN = tested on: ACHN
CAKI-1 = tested on: CAKI-1
CCRF-CEM = tested on: CCRF-CEM
COLO 205 = tested on: COLO 205
DLD-1 = tested on: DLD-1
DMS-114 = tested on: DMS-114
DMS-273 = tested on: DMS-273
EKVX = tested on: EKVX
HCC 2998 = tested on: HCC 2998
HCT-116 = tested on: HCT-116
HCT-15 = tested on: HCT-15
HL-60 = tested on: HL-60
HOP-92 = tested on: HOP-92
HT-29 = tested on: HT-29
IGROV-1 = tested on: IGROV-1
K562 = tested on: K562
KM-20L2 = tested on: KM-20L2
KM12 = tested on: KM12
LOX IMVI = tested on: LOX IMVI
LXFL 529 = tested on: LXFL 529
M14 = tested on: M14
M19-MEL = tested on: M19-MEL
MOLT-4 = tested on: MOLT-4
Malme-3M = tested on: Malme-3M
NCI-H226 = tested on: NCI-H226
NCI-H23 = tested on: NCI-H23
NCI-H460 = tested on: NCI-H460
NCI-H522 = tested on: NCI-H522
OVCAR-3 = tested on: OVCAR-3
OVCAR-4 = tested on: OVCAR-4
OVCAR-5 = tested on: OVCAR-5
RXF 393 = tested on: RXF 393
RXF 631 = tested on: RXF 631
SF-268 = tested on: SF-268
SF-295 = tested on: SF-295
SF-539 = tested on: SF-539
SK-MEL-28 = tested on: SK-MEL-28
SK-MEL-2 = tested on: SK-MEL-2
SK-MEL-5 = tested on: SK-MEL-5
SK-OV-3 = tested on: SK-OV-3
SNB-19 = tested on: SNB-19
SNB-75 = tested on: SNB-75
SW-620 = tested on: SW-620
TK-10 = tested on: TK-10
UACC-257 = tested on: UACC-257
UACC-62 = tested on: UACC-62
UO-31 = tested on: UO-31

Question: With `COc1ccc(NC(=O)C(=O)c2c(O)c3ccc(O)cc3oc2=O)c([N+](=O)[O-])c1` as the molecule, how does the GI50 (786-0) read?
Answer: > 100 µM (inactive)

Question: And the GI50 (A498)?
Answer: > 100 µM (inactive)

Question: And the GI50 (A549)?
Answer: > 100 µM (inactive)

Question: And the GI50 (ACHN)?
Answer: > 100 µM (inactive)

Question: What about the GI50 (CAKI-1) of the same molecule?
Answer: > 100 µM (inactive)

Question: And the GI50 (CCRF-CEM)?
Answer: > 100 µM (inactive)

Question: What about the GI50 (COLO 205) of the same molecule?
Answer: > 100 µM (inactive)

Question: What about the GI50 (DLD-1) of the same molecule?
Answer: > 100 µM (inactive)

Question: What about the GI50 (DMS-114) of the same molecule?
Answer: > 100 µM (inactive)

Question: What about the GI50 (DMS-273) of the same molecule?
Answer: > 100 µM (inactive)

Question: What about the GI50 (EKVX) of the same molecule?
Answer: > 100 µM (inactive)

Question: And the GI50 (HCC 2998)?
Answer: > 100 µM (inactive)

Question: What about the GI50 (HCT-116) of the same molecule?
Answer: > 100 µM (inactive)

Question: And the GI50 (HCT-15)?
Answer: > 100 µM

Question: What about the GI50 (HL-60) of the same molecule?
Answer: > 100 µM (inactive)

Question: And the GI50 (HOP-92)?
Answer: > 100 µM (inactive)

Question: What about the GI50 (HT-29) of the same molecule?
Answer: > 100 µM (inactive)

Question: And the GI50 (IGROV-1)?
Answer: > 100 µM (inactive)

Question: And the GI50 (K562)?
Answer: > 100 µM (inactive)

Question: What about the GI50 (KM-20L2) of the same molecule?
Answer: > 100 µM (inactive)

Question: And the GI50 (KM12)?
Answer: > 100 µM (inactive)

Question: What about the GI50 (LOX IMVI) of the same molecule?
Answer: > 100 µM (inactive)

Question: And the GI50 (LXFL 529)?
Answer: > 100 µM (inactive)

Question: What about the GI50 (M14) of the same molecule?
Answer: > 100 µM (inactive)

Question: And the GI50 (M19-MEL)?
Answer: > 100 µM (inactive)

Question: And the GI50 (MOLT-4)?
Answer: > 100 µM (inactive)

Question: What about the GI50 (Malme-3M) of the same molecule?
Answer: > 100 µM (inactive)

Question: What about the GI50 (NCI-H226) of the same molecule?
Answer: > 100 µM (inactive)

Question: And the GI50 (NCI-H23)?
Answer: > 100 µM (inactive)

Question: What about the GI50 (NCI-H460) of the same molecule?
Answer: > 100 µM (inactive)

Question: And the GI50 (NCI-H522)?
Answer: > 100 µM (inactive)

Question: And the GI50 (OVCAR-3)?
Answer: > 100 µM (inactive)

Question: What about the GI50 (OVCAR-4) of the same molecule?
Answer: > 100 µM (inactive)

Question: What about the GI50 (OVCAR-5) of the same molecule?
Answer: > 100 µM (inactive)

Question: What about the GI50 (RXF 393) of the same molecule?
Answer: > 100 µM (inactive)

Question: What about the GI50 (RXF 631) of the same molecule?
Answer: > 100 µM (inactive)

Question: And the GI50 (SF-268)?
Answer: > 100 µM (inactive)

Question: And the GI50 (SF-295)?
Answer: > 100 µM (inactive)

Question: And the GI50 (SF-539)?
Answer: > 100 µM (inactive)

Question: What about the GI50 (SK-MEL-28) of the same molecule?
Answer: > 100 µM (inactive)

Question: What about the GI50 (SK-MEL-2) of the same molecule?
Answer: > 100 µM (inactive)

Question: What about the GI50 (SK-MEL-5) of the same molecule?
Answer: > 100 µM (inactive)

Question: And the GI50 (SK-OV-3)?
Answer: > 100 µM (inactive)

Question: What about the GI50 (SNB-19) of the same molecule?
Answer: > 100 µM (inactive)

Question: And the GI50 (SNB-75)?
Answer: > 100 µM (inactive)

Question: What about the GI50 (SW-620) of the same molecule?
Answer: > 100 µM (inactive)

Question: And the GI50 (TK-10)?
Answer: > 100 µM (inactive)

Question: And the GI50 (UACC-257)?
Answer: > 100 µM (inactive)

Question: And the GI50 (UACC-62)?
Answer: > 100 µM (inactive)

Question: What about the GI50 (UO-31) of the same molecule?
Answer: > 100 µM (inactive)
